Measurements taken from ChEMBL document CHEMBL1133316, “Synthesis and antiviral activity of acyclovir-5'-(phenyl methoxy alaninyl) phosphate as a possible membrane-soluble nucleotide prodrug” (Bioorg Med Chem Lett, 2000).

Key:
Vero [1] = experiment: Compound was tested for inhibition against herpes simplex virus (HSV-2) infected vero cells; type: functional, cell-based; conditions: Chlorocebus sabaeus
MRC5 [2] = experiment: Compound was tested for inhibition against human cytomegalovirus (HCMV) in MRC-5 cells; type: functional, cell-based
Vero [3] = experiment: Compound was tested for cytotoxic activity uninfected vero cells; type: functional; conditions: Chlorocebus sabaeus
MRC5 [4] = experiment: Compound was tested for inhibition against Varicella zoster virus(VZV) infected MRC5 cells; type: functional, cell-based; conditions: Homo sapiens
MRC5 [5] = experiment: Compound was tested for inhibition against varicella zoster virus(VZV) infected MRC5 cells; conditions: Homo sapiens

Compound: COC(=O)C(C)NP(=O)(OCCOCn1cnc2c(O)nc(N)nc21)Oc1ccccc1 (stereo not drawn)
- EC50 (Vero [1]): > 100 µM
- EC50 (MRC5 [2]): 12 µM
- CC50 (Vero [3]): > 5 µM
- EC50 (MRC5 [4]): 16 µM

Compound: Nc1nc2c(ncn2COCCO)c(=O)[nH]1 [ACYCLOVIR]
- EC50 (MRC5 [5]): 5 µM
- EC50 (Vero [1]): 3 µM
- EC50 (MRC5 [2]): 50 µM
- CC50 (Vero [3]): > 5 µM
